Measurements from patent US9029391B2 (priority 2011, dated 2015).

System: HIV
Experiment: MT4 Assay (anti-HIV activity)
Type: cell-based
Conditions: Human immunodeficiency virus 1, 96 h, read-out: HIV MT4 Assay IC50, HTLV-1 transformed cell line MT-4, cell titer glo, 10 point dose response curve
Method in brief: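 MT-4 cells (HTLV-1 transformed) were used for antiviral activity and cytotoxicity, run in parallel, with luminescence read by CellTiter-Glo 96 hours later. Percent inhibition was expressed against the no-compound control. IC50s came from 10-point curves of 3-4-fold serial dilutions spanning >1000-fold.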

Row | SMILES | IC50 [nM]
1 | Cc1c(-c2c(C(OC(C)(C)C)C(=O)O)n(C)c(=O)c3cc(O)ccc23)ccc2c1CCCO2 (centres unmarked) [Example 84, 2-(tert-butoxy)-2-[7-hydroxy-2-methyl-4-(5-methyl-3,4-dihydro-2H-1-benzopyran-6-yl)-1-oxo-1,2-dihydroisoquinolin-3-yl]acetic acid] | 26000
2 | Cc1c(-c2c(C(OC(C)(C)C)C(=O)O)n(C)c(=O)c3c(F)cccc23)ccc2c1CCCO2 (centres unmarked) [Example 83, 2-(tert-butoxy)-2-[8-fluoro-2-methyl-4-(5-methyl-3,4-dihydro-2H-1-benzopyran-6-yl)-1-oxo-1,2-dihydroisoquinolin-3-yl]acetic acid] | 500
3 | Cc1ccc(-c2c(C(OC(C)(C)C)C(=O)O)n(C)c(=O)c3ccccc23)c(C)c1 (centres unmarked) [Example 34, 2-(tert-butoxy)-2-[4-(2,4-dimethylphenyl)-2-methyl-1-oxo-1,2-dihydroisoquinolin-3-yl]acetic acid] | 410
4 | Cc1c(-c2c([C@H](OC(C)(C)C)C(=O)O)n(C)c(=O)c3cc(OCc4ccc(Cl)s4)ccc23)cc(F)c2c1CCCO2 [Example 110, (2S)-2-(tert-butoxy)-2-{7-[(5-chlorothiophen-2-yl)methoxy]-4-(8-fluoro-5-methyl-3,4-dihydro-2H-1-benzopyran-6-yl)-2-methyl-1-oxo-1,2-dihydroisoquinolin-3-yl}acetic acid] | 40
5 | Cc1ccc(-c2c(C(OC(C)(C)C)C(=O)O)n(C)c(=O)c3cc(-c4cn(CCO)nn4)ccc23)c(C)c1 (centres unmarked) [Example 219, [(1,1-dimethylethyl)oxy]{4-(2,4-dimethylphenyl)-7-[1-(2-hydroxyethyl)-1H-1,2,3-triazol-4-yl]-2-methyl-1-oxo-1,2-dihydro-3-isoquinolinyl}acetic acid] | 11100
6 | Cn1c(C(OC(C)(C)C)C(=O)O)c(-c2ccc3c(c2)OCCO3)c2ccccc2c1=O (centres unmarked) [Example 53, 2-(tert-butoxy)-2-[4-(2,3-dihydro-1,4-benzodioxin-6-yl)-2-methyl-1-oxo-1,2-dihydroisoquinolin-3-yl]acetic acid] | 2460
7 | COc1c(C)cc(-c2c(C(OC(C)(C)C)C(=O)O)n(C)c(=O)c3ccccc23)cc1C (centres unmarked) [Example 1, tert-Butoxy-[4-(4-methoxy-3,5-dimethyl-phenyl)-2-methyl-1-oxo-1,2-dihydro-isoquinolin-3-yl]-acetic acid] | 6590
8 | Cc1c(-c2c(C(OC(C)(C)C)C(=O)O)n(C)c(=O)c3cc(OCC(=O)O)ccc23)ccc2c1CCCO2 (centres unmarked) [Example 122, 2-({3-[(tert-butoxy)(carboxy)methyl]-2-methyl-4-(5-methyl-3,4-dihydro-2H-1-benzopyran-6-yl)-1-oxo-1,2-dihydroisoquinolin-7-yl}oxy)acetic acid] | 50000
9 | Cc1cc(-c2c(C(OC(C)(C)C)C(=O)O)n(C)c(=O)c3ccccc23)cc(C)c1Cl (centres unmarked) [Example 66, 2-(tert-butoxy)-2-[4-(4-chloro-3,5-dimethylphenyl)-2-methyl-1-oxo-1,2-dihydroisoquinolin-3-yl]acetic acid] | 3600
10 | Cc1c(-c2c(C(OC(C)(C)C)C(=O)O)n(C)c(=O)c3cc(C(F)(F)F)ccc23)ccc2c1CCCO2 (centres unmarked) [Example 127, 2-(tert-butoxy)-2-[2-methyl-4-(5-methyl-3,4-dihydro-2H-1-benzopyran-6-yl)-1-oxo-7-(trifluoromethyl)-1,2-dihydroisoquinolin-3-yl]acetic acid] | 1140
11 | Cn1c(C(OC(C)(C)C)C(=O)O)c(-c2ccc3c(c2)CCCO3)c2cccc(F)c2c1=O (centres unmarked) [Example 35, 2-(tert-butoxy)-2-[4-(3,4-dihydro-2H-1-benzopyran-6-yl)-8-fluoro-2-methyl-1-oxo-1,2-dihydroisoquinolin-3-yl]acetic acid] | 1890
12 | COc1cc2c(=O)n(C)c(C(OC(C)(C)C)C(=O)O)c(-c3ccc4c(c3C)CCCO4)c2cc1Cl (centres unmarked) [Example 130, 2-(tert-butoxy)-2-[6-chloro-7-methoxy-2-methyl-4-(5-methyl-3,4-dihydro-2H-1-benzopyran-6-yl)-1-oxo-1,2-dihydroisoquinolin-3-yl]acetic acid] | 3750
13 | CC1CCOc2ccc(-c3c(C(OC(C)(C)C)C(=O)O)n(C)c(=O)c4ccccc34)cc21 (centres unmarked) [Example 149, [(1,1-dimethylethyl)oxy][2-methyl-4-(4-methyl-3,4-dihydro-2H-chromen-6-yl)-1-oxo-1,2-dihydro-3-isoquinolinyl]acetic acid] | 1170
14 | Cc1c(-c2c(C(OC(C)(C)C)C(=O)O)n(C)c(=O)c3cc(OCc4c(F)cc(F)cc4F)ccc23)ccc2c1CCCO2 (centres unmarked) [Example 99, 2-(tert-butoxy)-2-[2-methyl-4-(5-methyl-3,4-dihydro-2H-1-benzopyran-6-yl)-1-oxo-7-[(2,4,6-trifluorophenyl)methoxy]-1,2-dihydroisoquinolin-3-yl]acetic acid] | 130
